In publication PMC9481026 (PLoS ONE, 2022):
Values after ≈ are worked out from the molar mass of the structure shown. Values joined by “and” are separate entries in the source; they are usually repeats but may differ in a detail not shown here. Identical values can stand only once. Like-named read-outs stand apart in the source and are kept apart here.

What was measured:
C. neoformans = assay: microbe, parasite or virus in culture; type: cell-based; details: for MIC80: Cryptococcus neoformans, read-out: C. neoformans (MIC80, μM)
Staphylo-coccus spp. = assay: organism not typed; type: cell-based; details: for MIC80: read-out: Staphylo-coccus spp. (MIC80, μM)
RVFV strain MP-12 [1] = assay: microbe, parasite or virus in culture; type: cell-based, Rift Valley fever virus
E. coli = assay: microbe, parasite or virus in culture; type: cell-based; details: for MIC80: Escherichia coli, read-out: E. coli (MIC80, μM)
in vitro [2] = details: African green monkey
RVFV ZH501 = assay: microbe, parasite or virus in culture; type: cell-based, Rift Valley fever virus
in vitro [3] = details: human
RVFV strain MP-12 [4] = assay: microbe, parasite or virus in culture; type: cell-based, Rift Valley fever virus; details: read-out: A549 EC50
LACV = assay: microbe, parasite or virus in culture; type: cell-based, La Crosse virus; details: for EC50: read-out: LACV EC50
ZIKV = assay: microbe, parasite or virus in culture; type: cell-based, Zika virus; details: for EC50: read-out: ZIKV EC50
Human RNase H1 = target: T1, Human RNase H1 (Homo sapiens, UniProt O60930); assay: biochemical
T1 construct: made in house; host or cells: E. coli
T1 sequence (O60930 1-286): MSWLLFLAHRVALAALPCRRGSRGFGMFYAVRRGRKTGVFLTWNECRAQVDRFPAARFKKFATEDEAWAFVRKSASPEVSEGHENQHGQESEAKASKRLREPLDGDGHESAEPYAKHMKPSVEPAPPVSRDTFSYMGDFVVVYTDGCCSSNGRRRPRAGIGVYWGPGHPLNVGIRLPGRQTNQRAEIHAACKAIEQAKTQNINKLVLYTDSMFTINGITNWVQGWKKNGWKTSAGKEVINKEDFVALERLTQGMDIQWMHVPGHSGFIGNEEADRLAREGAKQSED

RVFV MP-12 = assay: microbe, parasite or virus in culture; type: cell-based, Rift Valley fever virus; details: read-out: Estimated EC50
in vitro [5] = details: human; remark: listed apart in the source
[6] = Rift Valley fever virus, Vero, read-out: RVFV (EC50, μM)
[7] = Rift Valley fever virus, Vero, 18 h
[8] = Rift Valley fever virus, A549, 24 h
[9] = Rift Valley fever virus, Vero, 24 h
[10] = Rift Valley fever virus, Vero, read-out: Vero EC50
[11] = La Crosse virus, Vero C1008, 24 h
[12] = read-out: Human RNase H1 (IC50)

CC(C)c1ccc(O)c(=O)c(O)c1 [Compound 46, β-thujaplicinol, reference compound]
MIC80 (C. neoformans): 8 µM (≈ 1.44 µg/mL) | MIC80 (Staphylo-coccus spp.): 20 µM (≈ 3.6 µg/mL) | EC50 (RVFV strain MP-12 [1]; [6]): 13.8 µM | MIC80 (E. coli): 44 µM (≈ 7.93 µg/mL) | CC50 (in vitro [2]; CC50 Vero): > 120 µM

Cc1cc(O)c(=O)c(O)cc1C(=O)c1cccs1 [Compound 308]
EC50 (RVFV ZH501; [7]): 54 µM | CC50 (in vitro [3]): 119 µM | MIC80 (C. neoformans): 11 µM (≈ 2.89 µg/mL) | MIC80 (Staphylo-coccus spp.): 44 µM (≈ 11.5 µg/mL) | EC50 (RVFV strain MP-12 [4]; [8]): 8.4 µM | EC50 (RVFV strain MP-12 [1]; [9]): 1.2 µM | EC50 (RVFV strain MP-12 [1]; [6]): 1.16 µM | EC50 (RVFV strain MP-12 [1]; [10]): 1.2 µM | MIC80 (E. coli): 25 µM (≈ 6.56 µg/mL) | LACV EC50 (LACV): activity against LACV | EC50 (LACV; [11]): 15.1 µM | ZIKV EC50 (ZIKV): not the unrelated flavivirus, Zika virus | EC50 (ZIKV; Zika virus, Vero C1008, 48 h): > 120 µM | CC50 (in vitro [2]; Vero CC50): > 120 µM | IC50 (Human RNase H1): 46 µM | CC50 (Vero cells; African green monkey): 111 µM | EC50 (RVFV MP-12; Rift Valley fever virus, Vero): 1.77 µM

Cc1cc(O)c(=O)c(O)cc1C(=O)c1ccco1 [Compound 309]
CC50 (in vitro [3]): 98.1 µM | EC50 (RVFV strain MP-12 [4]; [8]): 5.9 µM | EC50 (RVFV strain MP-12 [1]; [9]): 1.6 µM | EC50 (RVFV strain MP-12 [1]; [10]): 1.6 µM | LACV EC50 (LACV): activity against LACV | EC50 (LACV; [11]): 14.6 µM | ZIKV EC50 (ZIKV): not the unrelated flavivirus, Zika virus | EC50 (ZIKV; Zika virus, Vero C1008, 48 h): > 120 µM | CC50 (in vitro [2]; CC50): > 120 µM | CC50 (in vitro [2]; Vero CC50): > 120 µM

Cc1cc(O)c(=O)c(O)cc1C(=O)c1ccccc1O [Compound 311]
C. neoformans (MIC80, μM) (C. neoformans): 15 µM | Staphylo-coccus spp. (MIC80, μM) (Staphylo-coccus spp.): 67 µM | EC50 (RVFV strain MP-12 [1]; read-out: EC50): 11.8 µM | E. coli (MIC80, μM) (E. coli): 30 µM | IC50 (Human RNase H1; [12]): 26 µM | EC50 (RVFV MP-12): 3.16 µM

Cc1cc(O)c(=O)c(O)cc1C(=O)c1ccc(Br)cc1 [Compound 358]
CC50 (HepDES19): 12.5 µM | C. neoformans (MIC80, μM) (C. neoformans): 11 µM | EC50 (RVFV strain MP-12 [1]; read-out: RVFV (EC50)): 9 µM | E. coli (MIC80, μM) (E. coli): 20 µM | IC50 (Human RNase H1; [12]): 43 µM | CC50 (Vero cells): > 120 µM

Cc1cc(O)c(=O)c(O)cc1C(=O)c1ccccc1O [Compound 359]
MIC80 (C. neoformans): 24 µM (≈ 6.53 µg/mL) | CC50 (in vitro [5]): 19.4 µM | EC50 (RVFV strain MP-12 [1]; [9]): 5.1 µM | CC50 (in vitro [2]; CC50): > 120 µM | IC50 (Human RNase H1): 65 µM | EC50 (RVFV MP-12; Rift Valley fever virus, Vero): 4 µM

Cc1cc(O)c(=O)c(O)c(O)c1C(=O)c1ccc(-c2ccccc2)cc1 [Compound 362]
MIC80 (C. neoformans): 24 µM (≈ 8.36 µg/mL) | CC50 (in vitro [5]): 5.4 µM | EC50 (RVFV strain MP-12 [1]; [9]): 2.5 µM | EC50 (RVFV strain MP-12 [1]; [6]): 2.6 µM | CC50 (in vitro [2]; CC50): 80 µM | IC50 (Human RNase H1): 212 µM | CC50 (Vero cells; African green monkey): 77.8 µM | EC50 (RVFV MP-12; Rift Valley fever virus, Vero): 6 µM

Cc1cc(O)c(=O)c(O)cc1C(=O)NCc1ccccc1 [Compound 388]
CC50 (HepDES19): 19.8 µM | C. neoformans (MIC80, μM) (C. neoformans): 11 µM | Staphylo-coccus spp. (MIC80, μM) (Staphylo-coccus spp.): 67 µM | EC50 (RVFV strain MP-12 [1]; read-out: RVFV (EC50)): 9 µM | E. coli (MIC80, μM) (E. coli): 67 µM | IC50 (Human RNase H1; [12]): 166 µM | CC50 (Vero cells): > 120 µM | EC50 (RVFV MP-12): 19 µM

Cc1cc(O)c(=O)c(O)cc1C(=O)Nc1ccccc1 [Compound 389]
CC50 (HepDES19): 26.5 µM | C. neoformans (MIC80, μM) (C. neoformans): 3.5 µM | Staphylo-coccus spp. (MIC80, μM) (Staphylo-coccus spp.): 44 µM | EC50 (RVFV strain MP-12 [1]; read-out: RVFV (EC50)): 8.8 µM | E. coli (MIC80, μM) (E. coli): 44 µM | IC50 (Human RNase H1; [12]): 309 µM | CC50 (Vero cells): > 120 µM | EC50 (RVFV MP-12): 16 µM

O=C(Cc1ccccc1)Sc1cccccc1=O [Compound 680]
MIC80 (C. neoformans): 0.4 µM (≈ 0.103 µg/mL) | MIC80 (Staphylo-coccus spp.): 13 µM (≈ 3.33 µg/mL) | EC50 (RVFV strain MP-12 [4]; [8]): 11.6 µM | EC50 (RVFV strain MP-12 [1]; [9]): 6.3 µM | EC50 (RVFV strain MP-12 [1]; [10]): 6.3 µM | MIC80 (E. coli): 30 µM (≈ 7.69 µg/mL) | EC50 (LACV; [11]): 31.3 µM | EC50 (ZIKV; Zika virus, Vero C1008, 48 h): 19.5 µM | EC50 (ZIKV): 23 µM | CC50 (in vitro [2]; CC50): > 120 µM | CC50 (in vitro [2]; Estimated CC50): 0.9 µM | CC50 (in vitro [2]; Vero CC50): > 120 µM | IC50 (Human RNase H1): 652 µM | EC50 (RVFV MP-12; Rift Valley fever virus, Vero): 0.3 µM

CCCCSc1ccc(SCCCC)c(O)c(=O)c1O [Compound 694]
MIC80 (C. neoformans): 2.3 µM (≈ 0.723 µg/mL) | MIC80 (Staphylo-coccus spp.): 9 µM (≈ 2.83 µg/mL) | CC50 (in vitro [5]): 1.8 µM | EC50 (RVFV strain MP-12 [1]; [9]): 3.7 µM | CC50 (in vitro [2]; CC50): > 120 µM | CC50 (Vero cells; African green monkey): 22.1 µM | EC50 (RVFV MP-12; Rift Valley fever virus, Vero): 5.62 µM

CC(C)Sc1ccc(SC(C)C)c(O)c(=O)c1O [Compound 696]
MIC80 (C. neoformans): 1.5 µM (≈ 0.43 µg/mL) | MIC80 (Staphylo-coccus spp.): 13 µM (≈ 3.72 µg/mL) | CC50 (in vitro [5]): 14.1 µM | EC50 (RVFV strain MP-12 [1]; [9]): 6 µM | MIC80 (E. coli): 20 µM (≈ 5.73 µg/mL) | EC50 (RVFV MP-12; Rift Valley fever virus, Vero): 12 µM

O=c1c(O)cccc(S(=O)(=O)c2cccc3ccccc23)c1O [Compound 698]
CC50 (HepDES19): 13.7 µM | C. neoformans (MIC80, μM) (C. neoformans): 38 µM | Staphylo-coccus spp. (MIC80, μM) (Staphylo-coccus spp.): 20 µM | EC50 (RVFV strain MP-12 [1]; read-out: EC50): 11.7 µM | E. coli (MIC80, μM) (E. coli): 44 µM | IC50 (Human RNase H1; [12]): 261 µM | EC50 (RVFV MP-12): 8 µM

O=c1c(O)cccc(SCc2ccccc2)c1O [Compound 702]
MIC80 (C. neoformans): 0.55 µM (≈ 0.143 µg/mL) | MIC80 (Staphylo-coccus spp.): 13 µM (≈ 3.38 µg/mL) | EC50 (RVFV strain MP-12 [1]; [9]): 8.8 µM | MIC80 (E. coli): 9 µM (≈ 2.34 µg/mL) | CC50 (in vitro [2]; CC50): > 120 µM | CC50 (in vitro [2]; CC50 Vero): 35.6 µM | IC50 (Human RNase H1): 34 µM | EC50 (RVFV MP-12; Rift Valley fever virus, Vero): 7 µM

O=c1c(O)cccc(SCCc2ccccc2)c1O [Compound 704]
CC50 (HepDES19): 21.6 µM | C. neoformans (MIC80, μM) (C. neoformans): 1.8 µM | Staphylo-coccus spp. (MIC80, μM) (Staphylo-coccus spp.): 20 µM | EC50 (RVFV strain MP-12 [4]): 20 µM | EC50 (RVFV strain MP-12 [1]; read-out: EC50): 14.3 µM | EC50 (RVFV strain MP-12 [1]; read-out: Vero EC50): 14.3 µM | CC50 (A549 cells): 43 µM | EC50 (LACV): 89.2 µM | EC50 (ZIKV): 19.5 µM | IC50 (Human RNase H1; [12]): 25 µM | CC50 (Vero cells): > 120 µM | EC50 (RVFV MP-12): 14 µM

Cc1cc(O)c(=O)c(O)cc1C(=O)N1CCN(C(c2ccc(F)cc2)c2ccc(F)cc2)CC1 [Compound 1017]
MIC80 (C. neoformans): 6 µM (≈ 2.8 µg/mL) | CC50 (in vitro [5]): 3.9 µM | EC50 (RVFV strain MP-12 [1]; [9]): 8 µM | CC50 (in vitro [2]; CC50): > 120 µM | IC50 (Human RNase H1): 30 µM | CC50 (Vero cells; African green monkey): 54.7 µM | EC50 (RVFV MP-12; Rift Valley fever virus, Vero): 3.44 µM

O=c1nc(NO)ccn1[C@@H]1O[C@H](CO)[C@@H](O)[C@H]1O [EIDD-1931, β-D-N4-Hydroxycytidine, reference compound]
EC50 (RVFV ZH501; read-out: EC50): 30.5 µM | EC50 (RVFV strain MP-12 [1]; read-out: EC50): 5.16 µM and 5.2 µM | EC50 (LACV): 3.6 µM | EC50 (ZIKV): 1.7 µM and 1.74 µM | CC50 (Vero cells): > 120 µM | EC50 (RVFV MP-12): 5 µM

NC(=O)c1ncn([C@@H]2O[C@H](CO)[C@@H](O)[C@H]2O)n1 [Ribavirin, reference compound]
EC50 (RVFV ZH501; [7]): 73.6 µM | EC50 (RVFV strain MP-12 [1]; [9]): 22 µM | CC50 (in vitro [2]; CC50): > 120 µM | EC50 (RVFV MP-12; Rift Valley fever virus, Vero): 22 µM
